Like-named read-outs stand apart in the source and are kept apart here. Each block holds one compound with its values, some of them ahead of it.
Legend:
[1] = system: P-gp; experiment: Bidirectional transport across Caco-2 cell transwell model; type: in vitro ADME; conditions: human; Caco-2, digoxin 25 µM, P-gp substrate validation, without verapamil
Protocol: (§1) The Caco-2 cell line was obtained from the American Type Culture Collection (Manassas, VA, USA), and it was performed according to the previous study (Liu et al. [2018]). The Caco-2 cells were cultured in DMEM high glucose medium containing 15% FBS, 1% NEAA and 100 U/mL penicillin and 100 µg/mL streptomycin. The cells were cultured at 37 °C with 5% CO2. For transport studies, the cells at passage 40 were seeded on transwell polycarbonate insert filters (1.12 cm^2 surface, 0.4 µm pore size, 12 mm diameter; Corning Costar Corporation, MA, USA) in 12-well plates at a density of 1 × 10^5 cells/cm^2. Cells were allowed to grow for 21 days. For the first seven days, the medium was replaced every two days, and then daily. The transepithelial electrical resistance (TEER) of the monolayer cells was measured using Millicell ERS-2 (Millipore Corporation, Billerica, MA, USA), and TEER exceeding 400 Ω·cm^2 was used for the flux experiment. The integrity of the Caco-2 monolayers was confirmed by the paracellular flux of Lucifer yellow, which was less than 1% per hour. The alkaline phosphatase activity was validated using an Alkaline Phosphatase Assay Kit. The qualified monolayers were used for transport studies. Before the transport experiments, the cell monolayers were rinsed twice using warm (37 °C) HBSS, then the cells were incubated at 37 °C for 20 min. After preincubation, the cell monolayers were incubated with oridonin in fresh incubation medium added on either the apical or basolateral side for the indicated times at 37 °C. […] The permeability of oridonin (2 µM) in all of the above condition s for both directions, i.e., from the apical (AP) side to the basolateral (BL) side and from the BL side to the AP side, was measured after incubation for 30, 60, 90 and 120 min at 37 °C. In addition, the efflux activity of P-gp was validated using a typical P-gp substrate digoxin (25 µM). The apparent permeability coefficient (Papp) was calculated using the equation of Artursson and Karlsson: Papp=(ΔQ/Δt)×[1/(A×C0)] where Papp is the apparent permeability coefficient (cm/s), ΔQ/Δt (µmol/s) is the rate at which the compound appears in the receiver chamber, C0 (µmol/L) is the initial concentration of the compound in the donor chamber and A (cm^2) represents the surface area of the cell monolayer. Data were collected from three separate experiments, and each was performed in triplicate. In addition, the efflux activity of P-gp was validated using a typical P-gp substrate digoxin (25 µM).

[2] = system: Caco-2 cell monolayers; experiment: as above; type: in vitro ADME; conditions: Caco-2, digoxin 25 µM, verapamil present
Protocol: as §1

[3] = as above; type: in vitro ADME; conditions: human, Caco-2, oridonin 2 µM; for Papp B→A at 2 µM: basolateral to apical
Protocol: as §1

[4] = In vivo pharmacokinetic study of oridonin in rats with or without verapamil pre-treatment; conditions: Sprague-Dawley, rat, plasma, po, intragastrical oridonin (40 mg/kg; n = 6, mean ± SD); for CL/F: read-out: CLz/F (oral clearance) (converted)
Protocol: To evaluate the effects of verapamil on the pharmacokinetics of oridonin, the rats were divided into two groups of six animals each. The pre-treatment group was pre-treated with verapamil at a dose of 10 mg/kg/day (dissolved directly in normal saline containing 0.5% methylcellulose at a concentration of 2 mg/mL) for 7 days before the administration of oridonin. […] The dose of verapamil and oridonin were based on previous reports (Xu et al. [2006]; Zhu et al. [2017]; Huang et al. [2018]; Zhou et al. [2019]). The control group was without the pre-treatment of verapamil before the oral administration of oridonin. Blood samples (250 µL) were collected into heparinized tubes via the oculi chorioideae vein at 0.083, 0.33, 0.5, 1, 2, 4, 6, 8, 10, 12, 24 and 36 h after the oral administration of oridonin. The blood samples were centrifuged at 3500 rpm for 5 min. The plasma samples that were obtained were stored at −40 °C until analysis.
To 100 µL aliquot of a plasma sample, 20 µL methanol and 180 µL internal standard methanol solution (2 ng/mL) were added and vortexed for 60 s to mix in a 1.5 mL polypropylene tube, and were centrifuged at 12,000 rpm for 10 min. The supernatant was removed into an injection vial, and a 3 µL aliquot was injected into the LC-MS/MS system for analysis.
The determination of oridonin was performed on Agilent 1290 series liquid chromatography system and an Agilent 6470 triple-quadruple mass spectrometer (Palo Alto, CA, USA). The HPLC/MS conditions and sample preparation were basically according to a validated HPLC method described before (Jin et al. [2015]; Zhang et al. [2019]). The chromatographic analysis of oridonin was performed on a Waters X-Bridge C18 column (3.0 × 100 mm, i.d.; 3.5 µm, USA) at room temperature (25 °C). The mobile phase was water (containing 0.1% formic acid) and acetonitrile (30:70, v:v) with isocratic elution at a flow rate of 0.2 mL/min, and the analysis time was 4 min.
The mass scan mode was positive MRM mode. The precursor ion and product ion are m/z 365.3→347.3 for oridonin and m/z 252.1→155.9 for IS. The collision energy for oridonin and IS were 30 and 20 eV, respectively. The MS/MS conditions were optimized as follows: fragmentor, 110 V; capillary voltage, 3.5 kV; nozzle voltage, 500 V; nebulizer gas pressure (N2), 40 psig; drying gas flow (N2), 10 L/min; gas temperature, 350 °C; sheath gas temperature, 400 °C; sheath gas flow, 11 L/min.
The pharmacokinetic parameters, including the area under the plasma concentration-time curve (AUC), maximal plasma concentration (Cmax), the time for the maximal plasma concentration (Tmax), and the mean residence time (MRT) were calculated using the DAS 3.0 pharmacokinetic software (Chinese Pharmacological Association, Anhui, China).

[5] = set-up: method as in Xu et al. [2006]; conditions: oral administration in rats; ref Xu et al. [2006]; cited from earlier work
[6] = Metabolic stability in rat liver microsomes; type: in vitro ADME; conditions: for microsomal CLint at 1 µM: read-out: intrinsic clearance rate; for half-life at 1 µM: read-out: metabolic half-life (t1/2)
Protocol: Rat liver microsomes were used to investigate the effects of verapamil on the metabolism clearance of oridonin, and the assay conditions and reaction mixtures were similar to those reported previously (Wang et al. [2017]; Yan et al. [2017]). In brief, 30 µL rat liver microsome (20 mg/mL), 12 µL oridonin solution (100 µM) and 1113 µL PBS buffer (0.1 M, pH 7.4) were added to the centrifuge tubes on ice. There was a 5 min preincubation step at 37 °C before initiating the reaction by adding NADPH-generating system (45 µL) into the microsomal suspension. The effects of verapamil or ketoconazole (a positive CYP3A4 inhibitor) on the metabolic stability of oridonin were investigated by adding 10 µM of verapamil or ketoconazole (12 µL, final concentration of 0.1 µM) to rat liver microsomes and preincubating them for 30 min at 37 °C, followed by the addition of NADPH-generating system. Aliquots of 100 µL were collected from the reaction volumes at 0.083, 0.167, 0.33, 0.5, 1, 2, 4, 8, 12, 24 and 36 h after the addition of oridonin, and 200 µL ice-cold acetonitrile containing esculin was added to terminate the reaction. All the experiments were performed in triplicate. The subsequent sample preparation method was same as the method of plasma sample preparation, and the concentration of oridonin was determined by LC-MS.
The in vitro half-life (t1/2) was obtained using the equation: t1/2=0.693/k; V (µL/mg)=volume of incubation (µL)/protein in the incubation (mg); Intrinsic clearance (Clint) (µL/min/mg protein)=V × 0.693/t1/2.

[7] = with verapamil (concentration not stated), verapamil present
[8] = pre-treatment of verapamil (10 mg/kg/day for 7 days)

- efflux ratio at 25 µM [1]: 10.1
- efflux ratio [2]: abrogated
SMILES: C[C@H]1O[C@@H](O[C@H]2[C@@H](O)C[C@H](O[C@H]3[C@@H](O)C[C@H](O[C@H]4CC[C@@]5(C)[C@H](CC[C@@H]6[C@@H]5C[C@@H](O)[C@]5(C)[C@@H](C7=CC(=O)OC7)CC[C@]65O)C4)O[C@@H]3C)O[C@@H]2C)C[C@H](O)[C@@H]1O [digoxin]

- efflux ratio at 2 µM ([3]; pH 7.4, without verapamil): 1.67
- Papp B→A at 2 µM [3, 7]: 0.222 ± 0.032 ×10⁻⁶ cm/s
- efflux ratio at 2 µM [3, 7]: 1.15
- Papp A→B at 2 µM ([3]; apical to basolateral, HBSS pH 7.4, 37 °C, without verapamil): 0.191 ± 0.015 ×10⁻⁶ cm/s
- Papp B→A at 2 µM ([3]; HBSS pH 7.4, 37 °C, without verapamil): 0.32 ± 0.016 ×10⁻⁶ cm/s
- Cmax ([4]; 40 mg/kg, control without verapamil): 147 ± 10.2 ng/mL
- AUC(0-t) ([4]; control without verapamil): 1310 ± 290 ng·h/mL
- MRT ([4]; control without verapamil): 9.25 ± 1.1 h
- Tmax ([4]; control without verapamil): 1 ± 0.12 h
- half-life ([4]; control without verapamil): 10.9 ± 4.38 h
- CL/F ([4]; control without verapamil): 245 mL/min/kg
- AUC(0-t) [4, 8]: 2230 ± 530 ng·h/mL
- Cmax [4, 8]: 194 ± 10.5 ng/mL
- MRT [4, 8]: 11.5 ± 1.5 h
- Tmax [4, 8]: 1 ± 0.18 h
- half-life [4, 8]: 13.7 ± 4.81 h
- CL/F [4, 8]: 135 mL/min/kg
- microsomal CLint at 1 µM ([6]; pH 7.4, oridonin alone): 40.1 ± 2.5 µL/min/mg
- half-life at 1 µM ([6]; pH 7.4, oridonin alone): 0.577 ± 0.045 h
- half-life at 1 µM ([6]; pH 7.4, with verapamil 0.1 µM, in the presence of verapamil): 0.64 ± 0.055 h
- microsomal CLint at 1 µM ([6]; pH 7.4, with verapamil 0.1 µM, verapamil present): 36.1 ± 3.7 µL/min/mg
SMILES: C=C1C(=O)[C@]23[C@H](O)[C@H]1CC[C@H]2[C@@]12CO[C@]3(O)[C@@H](O)[C@@H]1C(C)(C)CC[C@@H]2O [oridonin]
- bioavailability (available after oral administration) [5]: 11%

From paper PMC6882484, “Influence of verapamil on the pharmacokinetics of oridonin in rats” (Pharmaceutical Biology, 2019)
